Key:
[1] = test system: HCT116 MTAP-deleted cells; assay: Cell viability assay (CellTiter-Glo, 7 days), HCT116 MTAP-deleted; conditions: Homo sapiens, HCT-116, 168 h
[2] = test system: SDMA signal (PRMT5 inhibition) in HCT116 MTAP-deleted cells; assay: Symmetric di-methyl arginine image-based high content screen assay (SDMA assay), HCT116 MTAP-deleted; type: cell-based; conditions: SDMA assay; for EC50: Homo sapiens, HCT-116, 72 h, 3 days of treatment, cell line not given, taken as HCT116 MTAP-deleted, read-out: EC50 (SDMA assay); for EC50 selectivity (SDMA assay): taken as HCT116 WT vs MTAP-deleted
Summary of the method: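 Read-out: per-cell mean SDMA immunofluorescence (Alexa Fluor 488 secondary), cells segmented by DAPI on a high-content imager. Compound exposure in HCT116 MTAP-deleted cells lasted until fixation on Day 3; overnight 4° C primary anti-SDMA antibody staining.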

EC50 [2]	EC50 selectivity (SDMA assay) [2]	SMILES	CC50 [1]
< 1 nM	400	Cn1ncc2c(N)nc3ccc(C(=O)N(Cc4ccc(C(F)(F)F)cn4)NC(=O)C4CC4)cc3c21 [Example 443, 4-amino-N′-(cyclopropanecarbonyl)-1-methyl-N-((5-(trifluoromethyl)pyridin-2-yl)methyl)-1H-pyrazolo[4,3-c]quinoline-8-carbohydrazide]	< 100 nM
< 1 nM	69	CC(=O)NN(Cc1ccc(C(F)(F)F)cc1F)C(=O)c1ccc2nc(N)c3cnn(C)c3c2c1 [Example 445, N′-acetyl-4-amino-N-(2-fluoro-4-(trifluoromethyl)benzyl)-1-methyl-1H-pyrazolo[4,3-c]quinoline-8-carbohydrazide]	< 100 nM
< 1 nM	49	CC(=O)N(C)N(Cc1ccc(OC(F)F)cc1Cl)C(=O)c1ccc2nc(N)c3cnn(C)c3c2c1 [Example 447, N′-acetyl-4-amino-N-(2-chloro-4-(difluoromethoxy)benzyl)-N′,1-dimethyl-1H-pyrazolo[4,3-c]quinoline-8-carbohydrazide]	< 100 nM
< 1 nM	394	CC(=O)N(C)N(Cc1cc(F)c(F)cc1Cl)C(=O)c1ccc2nc(N)c3cnn(C)c3c2c1 [Example 450, N′-acetyl-4-amino-N-(2-chloro-4,5-difluorobenzyl)-N′,1-dimethyl-1H-pyrazolo[4,3-c]quinoline-8-carbohydrazide]	< 100 nM
< 1 nM	213	CC(=O)N(C)N(Cc1ccc(F)cc1C#N)C(=O)c1ccc2nc(N)c3cnn(C)c3c2c1 [Example 452, N′-acetyl-4-amino-N-(2-cyano-4-fluorobenzyl)-N′,1-dimethyl-1H-pyrazolo[4,3-c]quinoline-8-carbohydrazide]	< 100 nM
< 1 nM	15	CN(CC1CCC1)N(Cc1ccc(C(F)(F)F)cn1)C(=O)c1cc2c(cc1F)nc(N)c1cnn(C)c12 [Example 453, 4-amino-N′-(cyclobutylmethyl)-7-fluoro-N′,1-dimethyl-N-((5-(trifluoromethyl)pyridin-2-yl)methyl)-1H-pyrazolo[4,3-c]quinoline-8-carbohydrazide]	< 100 nM
< 1 nM	92	CCN(C)N(Cc1ccc(C(F)(F)F)cn1)C(=O)c1ccc2nc(N)c3cnn(C)c3c2c1 [Example 455, 4-amino-N′-ethyl-N′,1-dimethyl-N-((5-(trifluoromethyl)pyridin-2-yl)methyl)-1H-pyrazolo[4,3-c]quinoline-8-carbohydrazide]	< 100 nM
< 1 nM	25	CCN(C)N(Cc1ccc(C(F)(F)F)cn1)C(=O)c1cc2c(cc1F)nc(N)c1cnn(C)c12 [Example 456, 4-amino-N′-ethyl-7-fluoro-N′,1-dimethyl-N-((5-(trifluoromethyl)pyridin-2-yl)methyl)-1H-pyrazolo[4,3-c]quinoline-8-carbohydrazide]	< 100 nM

Continued, compound first:

SMILES	EC50 [2]	EC50 selectivity (SDMA assay) [2]	CC50 [1]
CC(=O)N(C)N(Cc1sc2ccccc2c1Cl)C(=O)c1ccc2nc(N)c3cnn(C)c3c2c1 [Example 442, N′-acetyl-4-amino-N-((3-chlorobenzo[b]thiophen-2-yl)methyl)-N′,1-dimethyl-1H-pyrazolo[4,3-c]quinoline-8-carbohydrazide]	< 1 nM	163	< 100 nM
CC(=O)N(C)N(Cc1sc2ccccc2c1Br)C(=O)c1ccc2nc(N)c3cnn(C)c3c2c1 [Example 444, N′-acetyl-4-amino-N-((3-bromobenzo[b]thiophen-2-yl)methyl)-N′,1-dimethyl-1H-pyrazolo[4,3-c]quinoline-8-carbohydrazide]	< 1 nM	117	< 100 nM
CC(=O)N(C)N(Cc1c(Cl)ccc(F)c1F)C(=O)c1ccc2nc(N)c3cnn(C)c3c2c1 [Example 448, N′-acetyl-4-amino-N-(6-chloro-2,3-difluorobenzyl)-N′,1-dimethyl-1H-pyrazolo[4,3-c]quinoline-8-carbohydrazide]	1 to 5 nM	224	< 100 nM
CN(Cc1ccccn1)N(Cc1ccc(C(F)(F)F)cn1)C(=O)c1cc2c(cc1F)nc(N)c1cnn(C)c12 [Example 449, 4-amino-7-fluoro-N′,1-dimethyl-N′-(pyridin-2-ylmethyl)-N-((5-(trifluoromethyl)pyridin-2-yl)methyl)-1H-pyrazolo[4,3-c]quinoline-8-carbohydrazide]	1 to 5 nM	62	< 100 nM
CC(=O)N(C)N(Cc1ccc(F)cc1Cl)C(=O)c1ccc2nc(N)c3cnn(C)c3c2c1 [Example 451, N′-acetyl-4-amino-N-(2-chloro-4-fluorobenzyl)-N′,1-dimethyl-1H-pyrazolo[4,3-c]quinoline-8-carbohydrazide]	< 1 nM	111	< 100 nM
CCC(=O)N(C)N(Cc1ncc(C(F)(F)F)cc1Cl)C(=O)c1ccc2nc(N)c3cnn(C)c3c2c1 [Example 454, 4-amino-N-((3-chloro-5-(trifluoromethyl)pyridin-2-yl)methyl)-N′,1-dimethyl-N′-propionyl-1H-pyrazolo[4,3-c]quinoline-8-carbohydrazide]	1 to 5 nM	421	< 100 nM
CC(=O)N(C)N(Cc1ccc(Cl)cc1C#N)C(=O)c1ccc2nc(N)c3cnn(C)c3c2c1 [Example 457, N′-acetyl-4-amino-N-(4-chloro-2-cyanobenzyl)-N′,1-dimethyl-1H-pyrazolo[4,3-c]quinoline-8-carbohydrazide]	< 1 nM	90	< 100 nM
